Where “and” joins values, the source holds several entries; their conditions need not be identical. Equal entries are not always repeated. Entries after “also recorded” stand apart in the source; their conditions may differ. Where two headings read alike, the source gives them in different places.
Assays:
rabbit eyes (cornea) [1] = assay: Ex-vivo eye irritation test (EVEIT), healing of corneal abrasion lesions; settings: for Final size of corneal lesions: Example 2, after 3 days of hourly dosing 12 h/day, runs are replicates; for starting area of corneal lesions: Example 3; for outcome of corneal lesions: Example 3, after 2 or 3 days of exposure
Protocol: (§1) The physiological tolerability of F4H5 and of a mixture of 1 wt.-% ethanol in F4H5 was evaluated in an ex-vivo eye irritation test (EVEIT) using rabbit eyes taken from freshly sacrificed animals. The eyes were fastened in chambers coupled micropump systems which continuously supplied the eyes with cultivation medium (Minimal Essential Medium, MEM T031-05) without fetal calf serum. The vitality of the eyes was monitored by regularly measuring the concentration of lactate and glucose in the chamber eluate. The corneal surface of the eyes was damaged by abrasion, using a dental ceramic abrasive (638XF, Meisinger). For each eye, four lesions of 3.0 to 4.5 mm^2 were prepared.
(§2) To evaluate the effect of F4H5 and F4H5 with 1 wt.-% ethanol on the cornea, an amount of approx. 0.25 to 0.50 μl of the respective test substance was dropped onto the centre of a cornea once every hour over a period of 12 hours, followed by a 12 hour resting period in which the cornea was submersed in culture medium to simulate a closed lid during a night phase. […] Each test was performed over a period of 3 days. The effects were observed by optical coherence tomography (OCT), by digitally determining the dimensions of the lesions after staining with fluorescein, and finally by a histological evaluation of the corneal epithelium and endothelium at the end of each experiment.
(§3) Again, minimal essential medium (MEM) was included as negative control, benzalkonium chloride solution (0.01%) as positive control, and hyaluronic acid solution (0.1%) as a reference.

rabbit eyes (cornea) [2] = system: rabbit eyes (cornea)
Protocol: as §1, §2, §3

[3] = Example 3, within 3 days, first set of experiments

CCCCCC(F)(F)C(F)(F)C(F)(F)C(F)(F)F [F4H5, 1-perfluorobutylpentane]
effect on healing of abraded corneal lesions (rabbit eyes (cornea) [1]; Example 2): positive effect on the healing of damaged cornea similar to that of hyaluronic acid; also recorded: Substantial healing | morphological and histological evaluation of cornea at end of test (rabbit eyes (cornea) [1]; Example 2): healed very well | penetration into the cornea by OCT imaging (rabbit eyes (cornea) [1]; Example 2): no indication of penetration | physiological tolerability (rabbit eyes (cornea) [1]; Example 2): better tolerated than culture medium | Final size of corneal lesions (rabbit eyes (cornea) [1]): 0.19 mm^2 and 1.01 mm^2 and 0.06 mm^2

CCCCCCCCC(F)(F)C(F)(F)C(F)(F)C(F)(F)C(F)(F)C(F)(F)F [F6H8, 1-perfluorohexyloctane]
outcome of corneal lesions (rabbit eyes (cornea) [2]): complete remission | starting area of corneal lesions (rabbit eyes (cornea) [2]): 10.54-16.65 mm^2

benzalkonium chloride [BAC]
effect on healing of abraded corneal lesions (rabbit eyes (cornea) [1]; Example 2): rapid growth of the lesions | morphological and histological evaluation of cornea at end of test (rabbit eyes (cornea) [1]; Example 2): complete disintegration of the corneal epithelium | starting area of corneal lesions (rabbit eyes (cornea) [1]): 11.23 mm^2 | outcome of corneal lesions (rabbit eyes (cornea) [1]): complete epithelial loss

hyaluronic acid [HA]
effect on healing of abraded corneal lesions (rabbit eyes (cornea) [1]; Example 2): Substantial healing | morphological and histological evaluation of cornea at end of test (rabbit eyes (cornea) [1]; Example 2): healed very well | Final size of corneal lesions (rabbit eyes (cornea) [1]): 0.36 mm^2 and 0.24 mm^2 and 0.00 mm^2 | starting area of corneal lesions (rabbit eyes (cornea) [1]): 12.16 mm^2 | outcome of corneal lesions (rabbit eyes (cornea) [1]): complete healing | area of corneal damage after treatment (rabbit eyes (cornea) [1]; [3]): 0.32 mm^2 | reduction of area of corneal damage (rabbit eyes (cornea) [1]; [3]): 97.4%

From patent US11160865B2, “Liquid pharmaceutical composition for the delivery of active ingredients” (NOVALIQ GMBH, priority 2010, dated 2021)
